From patent US20110039721A1, “METHOD FOR PREDICTION ABOUT CARCINOGENICITY OF SUBSTANCE IN RODENT” (Chemicals Evaluation and Research Institute, priority 2007, published 2011)

What was measured:
[1] = tested on: mRNA expressed from the genes (A) to (D) in rat liver; test: Behavior of genes (mRNA expression level, oligo-DNA microarray) in rat liver after 28-day oral administration; type: in vivo
Summary of the method: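 Groups of four male F344 SPF rats aged 5 weeks are gavaged once a day for 28 days with test chemical in solvent or with solvent alone at equal volume. Total RNA comes from liver taken on day 28. Fold change of 1.5 or 1/1.5 versus control, directionally consistent, defines significance.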

[2] = tested on: liver; details: classification of the substance (Cr+/Cr−); cited from earlier work
[3] = tested on: rodent; details: classification of the substance (C+/C−); cited from earlier work
[4] = classification of the substance (M+/M−); cited from earlier work
[5] = gene group (A), Unigene No. Rn.167075
[6] = gene group (C), Unigene No. Rn.120914

CC1CCC(C(C)C)C(O)C1 (racemic) [TS034, DL-Menthol]
Behavior of gene caused by administration of chemical substance, Gene No. 4846 ([1]; gene group (A), Unigene No. Rn.144554): − | Behavior of gene caused by administration of chemical substance, Gene No. 2026 [1, 5]: + | Behavior of gene caused by administration of chemical substance, Gene No. 4218 [1, 5]: − | Behavior of gene caused by administration of chemical substance, Gene No. 6182 ([1]; gene group (A), Unigene No. Rn.5834): − | Behavior of gene caused by administration of chemical substance, Gene No. 5600 ([1]; gene group (A), Unigene No. Rn.9836): − | Behavior of gene caused by administration of chemical substance, Gene No. 1494 ([1]; gene group (B), Unigene No. Rn.1430): + | Behavior of gene caused by administration of chemical substance, Gene No. 2045 ([1]; gene group (B), Unigene No. Rn.19329): + | Behavior of gene caused by administration of chemical substance, Gene No. 2203 ([1]; gene group (B), Unigene No. Rn.21240): + | Behavior of gene caused by administration of chemical substance, Gene No. 533 ([1]; gene group (C), Unigene No. Rn.106184): + | Behavior of gene caused by administration of chemical substance, Gene No. 725 ([1]; gene group (C), Unigene No. Rn.108075): − | Behavior of gene caused by administration of chemical substance, Gene No. 1163 ([1]; gene group (C), Unigene No. Rn.11766): − | Behavior of gene caused by administration of chemical substance, Gene No. 4973 ([1]; gene group (C), Unigene No. Rn.118529): − | Behavior of gene caused by administration of chemical substance, Gene No. 4095 ([1]; gene group (C), Unigene No. Rn.119024): − | Behavior of gene caused by administration of chemical substance, Gene No. 1334 [1, 6]: − | Behavior of gene caused by administration of chemical substance, Gene No. 6620 [1, 6]: − | Behavior of gene caused by administration of chemical substance, Gene No. 6303 ([1]; gene group (C), Unigene No. Rn.123063): + | Behavior of gene caused by administration of chemical substance, Gene No. 5878 ([1]; gene group (C), Unigene No. Rn.143213): − | Behavior of gene caused by administration of chemical substance, Gene No. 1131 ([1]; gene group (C), Unigene No. Rn.144946): − | Behavior of gene caused by administration of chemical substance, Gene No. 1562 ([1]; gene group (C), Unigene No. Rn.14744): − | Behavior of gene caused by administration of chemical substance, Gene No. 1741 ([1]; gene group (C), Unigene No. Rn.1647): − | Behavior of gene caused by administration of chemical substance, Gene No. 893 ([1]; gene group (C), Unigene No. Rn.164817): − | Behavior of gene caused by administration of chemical substance, Gene No. 6026 ([1]; gene group (C), Unigene No. Rn.167685): − | Behavior of gene caused by administration of chemical substance, Gene No. 154 ([1]; gene group (C), Unigene No. Rn.185941): + | Behavior of gene caused by administration of chemical substance, Gene No. 1993 ([1]; gene group (C), Unigene No. Rn.18728): − | Behavior of gene caused by administration of chemical substance, Gene No. 813 ([1]; gene group (C), Unigene No. Rn.201760): − | Behavior of gene caused by administration of chemical substance, Gene No. 2494 ([1]; gene group (C), Unigene No. Rn.23969): − | Behavior of gene caused by administration of chemical substance, Gene No. 2546 ([1]; gene group (C), Unigene No. Rn.24561): − | Behavior of gene caused by administration of chemical substance, Gene No. 3776 ([1]; gene group (C), Unigene No. Rn.43232): − | Behavior of gene caused by administration of chemical substance, Gene No. 3929 ([1]; gene group (C), Unigene No. Rn.4620): − | Behavior of gene caused by administration of chemical substance, Gene No. 1119 ([1]; gene group (C), Unigene No. Rn.9757): − | Behavior of gene caused by administration of chemical substance, Gene No. 6742 ([1]; gene group (C), Unigene No. Rn.9779): − | Behavior of gene caused by administration of chemical substance, Gene No. 5634 ([1]; gene group (C), Unigene No. Rn.9862): − | Behavior of gene caused by administration of chemical substance, Gene No. 5726 ([1]; gene group (D), Unigene No. Rn.9939): − | Liver carcinogenicity [2]: Cr− | Carcinogenicity [3]: C− | Mutagenicity by Ames test [4]: M−
